“Also recorded” adds a separate entry of the source. Read-outs that look alike come from different tables or passages of the source.
Assays:
[1] = 7-day repeat-dose oral toxicokinetics; format: in vivo, CD-1 mouse; settings: for Cmax / Tmax / AUC(0-t): CD-1, mouse, plasma, po; for AUC(0-t): read-out: AUC0-24
Method: Toxicokinetics were evaluated as part of a 7-day oral repeat-dose dose range finding study in CD-1 mice. […] On Days 1 and 7, blood was collected for plasma toxicokinetics (TK) from the treatment groups at 0 (pre-first dose), 0.5, 2, 4, 6 (pre-second dose), 6.5, 8, 10, 12, and 24 hours post-first dose. In the vehicle control group, blood was collected for plasma TK on Day 1 and Day 7 at 0.5 and 6.5 hours post-first dose.

[2] = 7-day repeat-dose oral toxicokinetics; format: in vivo, Bama minipig; settings: for Tmax / Cmax / AUC(0-t): Bama, minipig, plasma; for AUC(0-t): read-out: AUC0-24
Method: Toxicokinetics were evaluated as part of a 7-day oral repeat-dose dose range finding study in Bama minipigs. […] On Days 1 and 7, blood was taken for plasma TK at 0 (pre first dose), 0.5, 1, 2, 4, 6 (pre-second dose), 6.5, 7, 8, 10, and 24 hours post-first dose.

[3] = Metabolic stability, all species; format: in vitro ADME, CD-1 mouse, Sprague-Dawley rat, Gottingen minipig, human; settings: incubated up to 2 hours, all four species
Method: Metabolic stability of ribitol was conducted in liver microsomes, cytosol, and primary hepatocytes, from CD-1 mouse, Sprague-Dawley rat, Gottingen minipig, and human at a concentration of ribitol of 10 μM.
Therefore, metabolism is unlikely to be a major elimination pathway of ribitol.

L276I FKRP mutant mice = assay: Efficacy in L276I FKRP mutant mouse model; format: in vivo
Method: The more common LGMD2i FKRP L276I mutation was studied in a murine model of disease. […] Total running time was increased in these dosing groups (FIG. 7C).
The effect of ribitol on an additional model of LGMD2i was evaluated in mice with the L276I FKRP mutation. L276I mutant mice were treated with ribitol at single daily doses of 0.5 g/kg, 2 g/kg, 5 g/kg, and 5 g/kg BID by oral gavage from the age of 8 weeks when the mild dystrophic phenotype is detectable. The duration of treatment was one year. Ribitol was dissolved in saline and administered by oral gavage. The same methods described above were applied to evaluate expression of matriglycan and muscle pathology.

in vivo = assay: in vivo
Method: The purpose of this study was to determine the MTD following a single oral dose (Phase 1) and to characterize the toxicity and toxicokinetic profile following 7 days BID dosing with ribitol (Phase 2).
In Phase 1, Swiss Crl: CD1® mice (5/sex/group) were given ribitol at 0.3, 1.0, 1.5, or 2.0 g/kg/dose BID (0.6, 2.0, 3.0, or 4.0 g/kg/day) with 5 to 7 hours between doses. […] Mice were assessed for viability, clinical signs, body weight, food consumption, and macroscopic findings at necropsy.
Doses were selected for Phase 2 based on the Phase 1 study results and the intended highest clinical dose of 12.0 g/day. In Phase 2, mice (5/sex/group) were given oral doses of 0 (vehicle control, purified water), 0.5, 1.0, or 1.5 g/kg/dose ribitol BID (1.0, 2.0, 3.0 g/kg/day) with 6 hours between doses. Mice were assessed for viability, clinical signs, body weight, food consumption, clinical pathology (hematology and serum chemistry), organ weights (adrenal glands, brain, heart, kidneys, liver with gall bladder, ovaries, spleen, testes, and thymus), and macroscopic pathology at necropsy. Blood was taken from a satellite group of animals (3/sex/timepoint) for plasma TK analysis on Days 1 and 7.

In vitro Ames assay = format: cell-based
hERG potassium channels = hERG potassium channels (Homo sapiens, UniProt Q12809); assay: cell-based
Chain of hERG potassium channels (Q12809 whole entry): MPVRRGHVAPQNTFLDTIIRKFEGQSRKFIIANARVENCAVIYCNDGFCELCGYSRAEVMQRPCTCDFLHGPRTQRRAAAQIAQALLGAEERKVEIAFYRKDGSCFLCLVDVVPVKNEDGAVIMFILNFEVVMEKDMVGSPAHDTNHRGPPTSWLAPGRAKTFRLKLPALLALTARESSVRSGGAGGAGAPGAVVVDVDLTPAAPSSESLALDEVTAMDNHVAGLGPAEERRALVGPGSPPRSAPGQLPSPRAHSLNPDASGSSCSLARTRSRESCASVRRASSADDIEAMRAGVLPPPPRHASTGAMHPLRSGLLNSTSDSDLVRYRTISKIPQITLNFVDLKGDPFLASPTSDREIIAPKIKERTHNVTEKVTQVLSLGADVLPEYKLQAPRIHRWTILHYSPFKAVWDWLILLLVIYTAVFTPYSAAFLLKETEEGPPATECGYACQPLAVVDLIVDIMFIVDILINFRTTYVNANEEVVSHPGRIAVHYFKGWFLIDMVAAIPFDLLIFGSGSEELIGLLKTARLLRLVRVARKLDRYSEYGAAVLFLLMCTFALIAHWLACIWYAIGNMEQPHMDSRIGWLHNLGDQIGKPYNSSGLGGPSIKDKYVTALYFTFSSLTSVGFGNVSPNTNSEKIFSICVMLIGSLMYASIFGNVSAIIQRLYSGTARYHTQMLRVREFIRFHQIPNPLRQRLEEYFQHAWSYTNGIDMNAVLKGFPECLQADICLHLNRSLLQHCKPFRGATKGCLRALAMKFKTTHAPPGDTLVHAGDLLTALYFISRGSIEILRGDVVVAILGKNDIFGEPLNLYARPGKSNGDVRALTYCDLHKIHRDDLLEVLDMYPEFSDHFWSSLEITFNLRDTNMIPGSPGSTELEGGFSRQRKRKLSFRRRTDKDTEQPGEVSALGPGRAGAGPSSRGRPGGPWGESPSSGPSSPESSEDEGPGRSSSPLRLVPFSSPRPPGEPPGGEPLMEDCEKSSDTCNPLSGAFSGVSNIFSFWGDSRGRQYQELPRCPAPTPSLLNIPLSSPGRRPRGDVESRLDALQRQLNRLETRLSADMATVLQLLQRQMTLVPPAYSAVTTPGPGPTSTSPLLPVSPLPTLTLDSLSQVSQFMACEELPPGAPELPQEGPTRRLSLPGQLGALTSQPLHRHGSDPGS
Method: Therefore, the concentrations chosen for the definitive hERG assay were 0.1, 0.3, 1, and 3 mM, the detected concentrations of postperfusion solution were 0.101, 0.293, 0.999, and 2.90 mM, respectively.

[4] = female, 0.5 g/kg, 0.5 g/kg/dose BID, Day 1, F
[5] = female, 0.5 g/kg, 0.5 g/kg/dose BID, Day 7, F
[6] = female, 1 g/kg, 1.0 g/kg/dose BID, Day 1, F
[7] = female, 1 g/kg, 1.0 g/kg/dose BID, Day 7, F
[8] = female, 1.5 g/kg, 1.5 g/kg/dose BID, Day 1, F
[9] = female, 1.5 g/kg, 1.5 g/kg/dose BID, Day 7, F
[10] = male, 0.5 g/kg, 0.5 g/kg/dose BID, Day 1, M
[11] = male, 0.5 g/kg, 0.5 g/kg/dose BID, Day 7, M
[12] = male, 1 g/kg, 1.0 g/kg/dose BID, Day 1, M
[13] = male, 1 g/kg, 1.0 g/kg/dose BID, Day 7, M
[14] = male, 1.5 g/kg, 1.5 g/kg/dose BID, Day 1, M
[15] = male, 1.5 g/kg, 1.5 g/kg/dose BID, Day 7, M
[16] = female, po, 0.1 g/kg, 0.1 g/kg BID, Day 1, F
[17] = female, po, 0.1 g/kg, 0.1 g/kg BID, Day 7, F
[18] = female, po, 0.3 g/kg, 0.3 g/kg BID, Day 1, F
[19] = female, po, 0.3 g/kg, 0.3 g/kg BID, Day 7, F
[20] = female, po, 1 g/kg, 1.0 g/kg BID, Day 1, F
[21] = female, po, 1 g/kg, 1.0 g/kg BID, Day 7, F
[22] = male, po, 0.1 g/kg, 0.1 g/kg BID, Day 1, M
[23] = male, po, 0.1 g/kg, 0.1 g/kg BID, Day 7, M
[24] = male, po, 0.3 g/kg, 0.3 g/kg BID, Day 1, M
[25] = male, po, 0.3 g/kg, 0.3 g/kg BID, Day 7, M
[26] = male, po, 1 g/kg, 1.0 g/kg BID, Day 1, M
[27] = male, po, 1 g/kg, 1.0 g/kg BID, Day 7, M

In the case of `OC[C@@H](O)[C@@H](O)[C@@H](O)CO` [ribitol, (2R,3s,4S)-Pentane-1,2,3,4,5-pentol], the drug accumulation ([1]; Day 7 vs Day 1, any dose level) is reported as “no apparent drug accumulation”, the “time of maximum plasma concentrations” value ([1]; after the first dose, Days 1 and 7 (exception females 0.5 g/kg BID Day 1)) is reported as 6.5 h and the Cmax [1, 4] is reported as 141 µg/mL. For the same compound, the Tmax [1, 4] was 0.5 h, the AUC(0-t) [1, 4] was 298 µg·h/mL and the Cmax [1, 5] was 100 µg/mL. For the same compound, the Tmax [1, 5] was 6.5 h, the AUC(0-t) [1, 5] was 218 µg·h/mL and the Cmax [1, 6] was 282 µg/mL. It also gave a Tmax [1, 6] of 6.5 h, an AUC(0-t) [1, 6] of 427 µg·h/mL and a Cmax [1, 7] of 210 µg/mL. For the same compound, the Tmax [1, 7] was 6.5 h, the AUC(0-t) [1, 7] was 319 µg·h/mL and the Cmax [1, 8] was 339 µg/mL. The Tmax [1, 8] was 6.5 h, the AUC(0-t) [1, 8] was 504 µg·h/mL and the Cmax [1, 9] was 266 µg/mL. It also gave a Tmax [1, 9] of 6.5 h, an AUC(0-t) [1, 9] of 602 µg·h/mL and a Cmax [1, 10] of 121 µg/mL. The Tmax [1, 10] was 6.5 h, the AUC(0-t) [1, 10] was 246 µg·h/mL and the Cmax [1, 11] was 118 µg/mL. For the same compound, the Tmax [1, 11] was 6.5 h, the AUC(0-t) [1, 11] was 170 µg·h/mL and the Cmax [1, 12] was 265 µg/mL. The Tmax [1, 12] was 6.5 h, the AUC(0-t) [1, 12] was 414 µg·h/mL and the Cmax [1, 13] was 237 µg/mL. The Tmax [1, 13] was 6.5 h, the AUC(0-t) [1, 13] was 345 µg·h/mL and the Cmax [1, 14] was 316 µg/mL. It also gave a Tmax [1, 14] of 6.5 h, an AUC(0-t) [1, 14] of 595 µg·h/mL and a Cmax [1, 15] of 305 µg/mL. For the same compound, the Tmax [1, 15] was 6.5 h, the AUC(0-t) [1, 15] was 562 µg·h/mL and the drug accumulation ([2]; 7 days, up to 1.0 g/kg/dose BID) was “no apparent accumulation”. The Tmax ([2]; both sexes, oral, post first dose, Days 1 and 7, range) was 0.5 to 6.5 h, the Cmax [2, 16] was 53.1 µg/mL and the Tmax [2, 16] was 3.8 h. For the same compound, the AUC(0-t) [2, 16] was 284 µg·h/mL, the Cmax [2, 17] was 40.2 µg/mL and the Tmax [2, 17] was 0.8 h. The AUC(0-t) [2, 17] was 317 µg·h/mL, the Cmax [2, 18] was 112 µg/mL and the Tmax [2, 18] was 0.8 h. For the same compound, the AUC(0-t) [2, 18] was 676 µg·h/mL, the Cmax [2, 19] was 159 µg/mL and the Tmax [2, 19] was 0.5 h. For the same compound, the AUC(0-t) [2, 19] was 784 µg·h/mL, the Cmax [2, 20] was 299 µg/mL and the Tmax [2, 20] was 1.3 h. The AUC(0-t) [2, 20] was 1750 µg·h/mL, the Cmax [2, 21] was 331 µg/mL and the Tmax [2, 21] was 1.3 h. It also gave an AUC(0-t) [2, 21] of 1870 µg·h/mL, a Cmax [2, 22] of 35.5 µg/mL and a Tmax [2, 22] of 3.5 h. It also gave an AUC(0-t) [2, 22] of 160 µg·h/mL, a Cmax [2, 23] of 45.1 µg/mL and a Tmax [2, 23] of 3.5 h. The AUC(0-t) [2, 23] was 183 µg·h/mL, the Cmax [2, 24] was 117 µg/mL and the Tmax [2, 24] was 6.5 h. It also gave an AUC(0-t) [2, 24] of 504 µg·h/mL, a Cmax [2, 25] of 58.3 µg/mL and a Tmax [2, 25] of 0.5 h. It also gave an AUC(0-t) [2, 25] of 438 µg·h/mL, a Cmax [2, 26] of 308 µg/mL and a Tmax [2, 26] of 3.8 h. It also gave an AUC(0-t) [2, 26] of 169 µg·h/mL, a Cmax [2, 27] of 283 µg/mL and a Tmax [2, 27] of 1.3 h. The AUC(0-t) [2, 27] was 1920 µg·h/mL, the “metabolic stability in liver microsomes, cytosol, hepatocytes” value [3] was “stable; also recorded: not metabolized by the enzymes in the liver” and the creatine kinase (L276I FKRP mutant mice; 1 year oral dosing) was “reduced with increasing doses”. The “expression of matriglycan on αDG (immunohistochemistry)” value (L276I FKRP mutant mice; 1 year oral dosing) was “increases in a dose dependent manner”, the “increase in treadmill running distance” value (L276I FKRP mutant mice; 2 g/kg/day) was 14% and the “matriglycan expression (immunohistochemistry)” value (L276I FKRP mutant mice; all treatment groups) was “increased matriglycan expression”. For the same compound, the treadmill running distance (L276I FKRP mutant mice; six months, 2, 5 g/kg, 5 g/kg/dose BID, 3.3 g/kg/dose TID) was “trend toward improved running distance”, the total running time (L276I FKRP mutant mice; six months, same dosing groups) was “increased” and the “mortality, clinical signs, body weight, food consumption, macroscopic findings” value (in vivo; Phase 1, up to 2.0 g/kg/dose BID (4.0 g/kg/day), 14-day observation) was “no treatment-related mortality”. For the same compound, the NOAEL at 7 days (in vivo; both, CD-1, mouse, in vivo, po) was 3000 mg/kg/day, the NOAEL (in vivo; mouse, in vivo, po) was 1.5 g/kg/dose BID and the genotoxicity (In vitro Ames assay) was “devoid of genotoxicity potential”. The IC50 (hERG potassium channels) was greater than 2900 µM.
